As usually defined, the IC50 is the concentration that gives 50% inhibition.

The target of assay [1] is T1, TBK1 (Homo sapiens, UniProt Q9UHD2).
T1 sequence (Q9UHD2 1-729): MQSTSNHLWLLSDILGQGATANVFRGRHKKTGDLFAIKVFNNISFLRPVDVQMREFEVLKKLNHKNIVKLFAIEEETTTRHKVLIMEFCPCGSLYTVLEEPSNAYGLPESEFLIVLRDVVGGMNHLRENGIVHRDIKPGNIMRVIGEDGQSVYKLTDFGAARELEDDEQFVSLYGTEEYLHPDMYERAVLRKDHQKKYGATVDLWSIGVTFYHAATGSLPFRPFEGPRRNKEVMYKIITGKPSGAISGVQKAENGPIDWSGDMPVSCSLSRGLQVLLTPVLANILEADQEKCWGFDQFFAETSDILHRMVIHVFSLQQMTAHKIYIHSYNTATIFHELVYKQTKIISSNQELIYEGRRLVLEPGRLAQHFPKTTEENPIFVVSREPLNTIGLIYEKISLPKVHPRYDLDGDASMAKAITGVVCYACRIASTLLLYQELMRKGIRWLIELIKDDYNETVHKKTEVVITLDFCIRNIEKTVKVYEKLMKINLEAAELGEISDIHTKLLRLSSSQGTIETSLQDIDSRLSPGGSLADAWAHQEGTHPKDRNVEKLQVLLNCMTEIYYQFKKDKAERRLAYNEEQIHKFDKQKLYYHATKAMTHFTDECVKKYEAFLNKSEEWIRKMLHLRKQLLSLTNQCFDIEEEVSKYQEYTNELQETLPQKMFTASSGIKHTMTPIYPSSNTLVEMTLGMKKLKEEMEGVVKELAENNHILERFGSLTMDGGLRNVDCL
Put plainly: TBK Biochemical Assay. As to conditions: read-out: TBK1 IC50. The procedure, abridged:
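TBK1 enzyme and substrate incubated with compounds (10-point 1:4 dilution, top 30 uM final, 1% DMSO) for 90 min at 25° C, then stopped. Substrate/product peaks read by microfluidic mobility-shift (Caliper LabChip); 10 uM staurosporine as full-inhibition control.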

Assay [2] deals with T2, IKKε (Homo sapiens, UniProt Q14164).
T2 sequence (Q14164 1-716): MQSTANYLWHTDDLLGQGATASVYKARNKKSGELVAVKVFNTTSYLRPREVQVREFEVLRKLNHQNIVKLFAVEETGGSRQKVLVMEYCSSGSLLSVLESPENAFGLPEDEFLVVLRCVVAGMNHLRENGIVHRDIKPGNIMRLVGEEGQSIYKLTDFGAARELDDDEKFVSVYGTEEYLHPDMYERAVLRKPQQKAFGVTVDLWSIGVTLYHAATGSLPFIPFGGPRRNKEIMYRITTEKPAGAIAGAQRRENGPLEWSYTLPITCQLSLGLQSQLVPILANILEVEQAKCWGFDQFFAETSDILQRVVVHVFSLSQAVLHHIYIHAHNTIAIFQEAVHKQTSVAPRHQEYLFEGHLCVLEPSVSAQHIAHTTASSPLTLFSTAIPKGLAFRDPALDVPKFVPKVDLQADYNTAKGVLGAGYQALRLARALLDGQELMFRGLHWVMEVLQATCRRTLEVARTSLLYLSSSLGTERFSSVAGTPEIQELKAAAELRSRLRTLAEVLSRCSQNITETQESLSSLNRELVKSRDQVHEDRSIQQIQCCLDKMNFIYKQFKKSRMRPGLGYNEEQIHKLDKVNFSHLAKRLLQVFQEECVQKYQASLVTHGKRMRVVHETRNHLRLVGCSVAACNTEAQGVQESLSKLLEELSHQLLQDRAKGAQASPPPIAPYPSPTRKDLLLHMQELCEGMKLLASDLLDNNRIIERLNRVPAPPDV
Description: IKKe Biochemical Assay. As to conditions: read-out: IKKε IC50. The procedure, abridged: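 Recombinant IKKε and substrate were incubated with compound (10-point 1:4 series, top 30 uM final, 1% DMSO) for 90 min at 25° C, then stopped. Substrate-to-product conversion was read by LabChip microfluidic mobility shift; 10 uM staurosporine served as full-inhibition wells.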

Assay [3] has as its system phosphorylation of the IRF-3 protein in MDA-MB-468 cells. Description: pIRF3 immunocytochemistry cell based assay. As to conditions: Homo sapiens; MDA-MB-468 cells, Poly(I:C) stimulation; read-out: pIRF3 IC50. A digest of the protocol: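 MDA-MB-468 cells got compounds (10-point, 3-fold from 10 uM) for 1 h at 37 °C, then 10 ug/ml Poly(I:C) for 2 h. Fixed, permeabilized cells were immunostained for pIRF3 with AlexaFluor488 and counterstained with PI. % phosphorylation was read by laser scanning cytometry, and IC50 curves were fitted.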

Each structure is given as a SMILES string.

Take `COc1cc(C(=O)NOC2COC2)ccc1-c1cc2nccc(-c3ccc(OC4CCOCC4)c(C#N)c3)c2o1` [Compound 80, 4-{7-[3-Cyano-4-(tetrahydro-pyran-4-yloxy)-phenyl]-furo[3,2-b]pyridin-2-yl}-3-methoxy-N-(oxetan-3-yloxy)-benzamide]: the IC50 in assay [1] is less than 100 nM; in assay [2] it was less than 100 nM; in assay [3], 100 to 1000 nM.
Take `CN(C)C(=O)c1ccc(-c2cc3nccc(-c4ccc(OC5CC(CO)(CCl)C5)c(C#N)c4)c3o2)cc1` (stereo not drawn) [Compound 168, 4-{7-[4-(3-Chloromethyl-3-hydroxymethyl-cyclobutoxy)-3-cyano-phenyl]-furo[3,2-b]pyridin-2-yl}-N,N-dimethyl-benzamide]: the IC50 in assay [1], in assay [2] and in assay [3] was 100 to 1000 nM throughout.
As for `CN(CCO)C(=O)c1ccc(-c2cc3ncc(F)c(-c4ccc(OC5CCOCC5)c(C#N)c4)c3o2)c(F)c1` [Compound 302, 4-[7-[3-cyano-4-(oxan-4-yloxy)phenyl]-6-fluorofuro[3,2-b]pyridin-2-yl]-3-fluoro-N-(2-hydroxyethyl)-N-methylbenzamide], the IC50 in assay [1] is less than 100 nM; in assay [2] it was less than 100 nM; in assay [3], 100 to 1000 nM.
On to `COc1cc(C(=O)N2C[C@@H]3C[C@H]2CN3C)ccc1-c1cc2nccc(-c3ccc(NC4CCOCC4)c(C#N)c3)c2o1` [Compound 515], for which the IC50 in assay [1], in assay [2] and in assay [3] was less than 100 nM throughout.
With `COc1cc(C(=O)N2CCCCC2CO)ccc1-c1cc2nccc(-c3ccc(OC4CCOCC4)c(C#N)c3)c2o1` (stereo not drawn) [Compound 10], the half-maximal inhibitory concentration (IC50) in assay [1], in assay [2] and in assay [3] was less than 100 nM each time.
With `COc1cc(C(=O)NC2CN(C)C2)ccc1-c1cc2nccc(-c3ccc(OC4CCOCC4)c(C#N)c3)c2o1` [Compound 28, 4-{7-[3-Cyano-4-(tetrahydro-pyran-4-yloxy)-phenyl]-furo[3,2-b]pyridin-2-yl}-3-methoxy-N-(1-methyl-azetidin-3-yl)-benzamide], the IC50 in assay [1], in assay [2] and in assay [3] was less than 100 nM each time.
Consider `COc1cc(C(=O)NC2(CO)COC2)ccc1-c1cc2nccc(-c3ccc(OC4CCOCC4)c(C#N)c3)c2o1` [Compound 51, 4-{7-[3-Cyano-4-(tetrahydro-pyran-4-yloxy)-phenyl]-furo[3,2-b]pyridin-2-yl}-N-(3-hydroxymethyl-oxetan-3-yl)-3-methoxy-benzamide], for which the IC50 was less than 100 nM in assay [1], less than 100 nM in assay [2] and 100 to 1000 nM in assay [3].
Regarding `COc1cc(C(=O)N2C[C@H]3C[C@@H]2CN3C)ccc1-c1cc2nccc(-c3ccc(OC4CCOCC4)c(C#N)c3)c2o1` (stereo in doubt) [Compound 507], the IC50 in assay [1], in assay [2] and in assay [3] was less than 100 nM throughout.
For `COc1cc(C(=O)N(C)C)cnc1-c1cc2ncc(F)c(-c3ccc(NC4CCOCC4)c(C#N)n3)c2o1` [Compound 352, 6-(7-[6-cyano-5-[(oxan-4-yl)amino]pyridin-2-yl]-6-fluorofuro[3,2-b]pyridin-2-yl)-5-methoxy-N,N-dimethylpyridine-3-carboxamide], the figures for the IC50 in assay [1], in assay [2] and in assay [3] were 100 to 1000 nM, 1000 to 5000 nM and 1000 to 5000 nM, respectively.
Take `COc1cc(C(=O)N[C@H]2[C@@H]3C[C@H]2CN(C)C3)ccc1-c1cc2nccc(-c3ccc(OC4CCOCC4)c(C#N)c3)c2o1` (single isomer, unassigned) [Compound 365]: the values for the IC50 in assay [1], in assay [2] and in assay [3] were less than 100 nM, less than 100 nM and 100 to 1000 nM, respectively.
In the case of `COc1cc(C(=O)N2CCC(CO)CC2)ccc1-c1cc2nccc(-c3ccc(N4CC[C@H](F)C4)c(C#N)c3)c2o1` [Compound 70, 2-((S)-3-Fluoro-pyrrolidin-1-yl)-5-{2-[4-(4-hydroxymethyl-piperidine-1-carbonyl)-2-methoxy-phenyl]-furo[3,2-b]pyridin-7-yl}-benzonitrile], the IC50 in assay [1] is less than 100 nM; in assay [2] it was less than 100 nM; in assay [3] it was 100 to 1000 nM.
